Test results published in patent US20090028798A1, “METHOD FOR DETERMINING REDOX STATUS OF A TISSUE” (Government of the USA, represented by the Secretary, …, priority 2005, published 2009).
Marks after values point to notes of the source that are not given here.

Experiments:
[1] = Decay rate of nitroxyl contrast agent by 300 MHz CW EPR imaging (EPRI); format: in vivo, C3H mice; conditions: 1.8 μmol/g b.w. i.v., mean ± SD
Protocol: (§1) Female C3H mice were supplied by the Frederick Cancer Research Center, Animal Production (Frederick, Md.). Animals, received at six weeks of age, were housed five per cage in climate controlled circadian rhythm-adjusted rooms and were allowed food and water ad libitum. Experiments were carried out in compliance with the Guide for the Care and Use of Laboratory Animal Resources (1996), National Research Council, and approved by the National Cancer Institute Animal Care and Use Committee. Experiments were performed within 4 weeks of their arrival at the facility. Their body weight measured before the experiments was in the range 25-28 g. A squamous cell carcinoma was implanted and grown on the right hind leg for a week.
Mice were anesthetized by isoflurane (1.5%) in medical air (700 mL/min). Both tumor and normal legs were placed on special mouse holder and fixed with adhesive tapes on the divider between both legs. […]
(§2) The EPRI and MRI data were analyzed using the ImageJ software package (a public domain Java image processing program inspired by NIH Image that can be extended by plug-ins, http://rsb.info.nih.gov/ij/). T1 and T2 mappings were calculated using a plug-in (MRI analysis calculator, Karl Schmidt, HypX Laboratory, Brigham and Women's Hospital) available in ImageJ.
A time course of CW EPR imaging after injection of a nitroxyl contrast agent was determined. […]

[2] = Relaxation time and relaxivity of nitroxyl contrast agents compared with Gd-DTPA; format: physicochemical
Excerpt: The present invention is predicated on the difference in reducing capability and provides a method of determining the redox status of a region of interest in an animal tissue, such as a tumor. By determining the redox status of a tumor it is possible to not only diagnose a tumor due to its enhanced reduction of intracellular nitroxide contrast agent, but also to determine appropriate radiation treatment fields spatially to deliver therapeutic doses of radiation, and to determine appropriate timing sequences after the administration of a nitroxide contrast agent such that the maximum difference between normal and tumor tissue with respect to the radioprotective form of the nitroxide is present in the normal tissue, thereby limiting collateral damage to the normal tissue. The T1-contrast afforded by the nitroxide class of compounds, by virtue of their paramagnetic relaxivity which is in the range of 0.2 (mM s)−1 makes it possible to use standard MRI scanners to obtain the redox information in the inventive method. Typical relaxivity and relaxation times are shown for various nitroxyl contrast agents compared with a standard contrast agent, Gd-DTPA, in Table 1. […] Without being bound to any particular theory, it is believed that the T1 relaxation of protons could be affected by paramagnetic electron spin. Therefore, a change of MRI contrast before and after administration of a nitroxyl spin probe (i.e., a nitroxide contrast agent) should reflect the amount of nitroxyl in addition to providing anatomical mapping simultaneously. Such anatomical mapping provides the ability to diagnose the existence of a tumor, determine the status of a tumor, determine borders of a radiation treatment field, determine appropriate timing and dosage for radiation treatment, as well as determining the efficacy of radiation and other forms of cancer treatment.

[3] = Decay rate of nitroxyl contrast agent by 4.7 T SPGR T1-weighted MRI; format: in vivo, C3H mice; conditions: 1.5 μmol/g b.w. i.v., mean ± SD
Protocol: as §1
MRI and pulse sequence measurements were also obtained. MRI measurements were performed at 4.7 T controlled with ParaVision®3.0.1 (Bruker BioSpin MRI GmbH, Rheinstetten, Germany). […]
as §2, with “ImageJ. […]” for “ImageJ.”

[4] = Decay rate of nitroxyl contrast agent by in vivo 700 MHz EPR spectroscopy with surface coil (EPRS); parameters: species or system C3H mice; conditions: linear part 7.5-20 min, mean ± SD
Protocol: as §1
In vivo EPR spectroscopic measurement of the nitroxyl probe were obtained. Mice were anesthetized and placed on special mouse holder and fixed with adhesive tapes. The single loop surface coil (7.3 mm i.d.) was placed on the normal or the tumor leg. EPR signal was measured by CW EPR at 700 MHz. EPR conditions were as follows: microwave frequency=700 MHz, microwave power=10 mW, field modulation frequency=13.5 kHz, field modulation amplitude=0.3 Gauss, time constant=0.03 s, sweep width=60 Gauss, scan time=8 s. The center line of the triplet was repeatedly obtained every 20 s for 20 min. […]

[5] = Nitroxyl radical decay rate in tissues, from change in MRI contrast over time; format: in vivo, mice; conditions: for Decay Rate: MRI, mean ± SD
Protocol: In the inventive method, the amount of reduced nitroxyl contrast agent (i.e., hydroxylamine) in the animal tissue is determined. This determination can be made using any suitable method. For example, MRI contrast changes and the difference in concentration of a nitroxyl contrast agent, such as 3CP, show linearity in low concentration level (i.e., below 1.5 mM). To perform T1 and T2 mapping, spin echo images can be obtained using a multi-slice multi-echo (MSME) sequence. For instance, a time sequence of the total number of SPGR images may be determined. The images can then be averaged and each image may be divided by the averaged initial image. Semi-logarithmic values of the averaged image intensity in a given region of interest can be plotted versus time after injection. The change in intensity can be determined at one or more time points after injection of a nitroxyl contrast agent. For example, changes in intensity may be made every 10 s, 20 s, 30, 40 s, 50 s, or every 1, 5, 7, 10, 15, 20 minutes, or any integer in between, after injection of a nitroxyl contrast agent. A decay rate can be obtained from the linear part of the slope after peak by the least squares method. A sample calculation of a decay rate using nitroxyl contrast agent 3CP is as follows: The spoiled gradient echo (SPGR) image intensity Mt at time t after nitroxyl contrast agent injection can be calculated using the equation:
Mt=M0×[1−EXP(−TR/T1t)]×EXP(−TE/T2)×{sin α/[1−cos α×EXP(−TR/T1t)]}.
In the above equation, MO is proton density, and a is flip angle. Tissue (or sample) T1 can change with particular time t (min.) (T1t) depending on the concentration of the 3CP (Ct). T1t[…]1/R1t and R1t=1/T1i+r1×Ct, where R1t is T1 relaxation […] t, the relaxivity r1 of 3CP is 0.17 mM^−1s-1, T1i is the initial T1 base line (intrinsic tissue T1). Ct (mM), which is the first concentration of 3CP at particular time t (min.), is calculated by assuming first order decay as indicated by the equation Ct=Cmax×EXP([…]), where ktrue is the given decay rate. Logarithmic values of the intensity change from the baseline (ie. ΔM % t=(Mt/Mi−1)×100 or ΔMt=Mt−Mi), can be plotted with time t. Mi is the intrinsic signal intensity of the tissue (or sample) calculated as Ct=0. The decay constant kMRI can be obtained from the slopes of the plots ΔM % t and ΔMt by least square fit.
Typical decay rates, determined by a change in intensity over time, are shown in Table 1 and FIG. 1 for nitroxyl contrast agents Tempol, Carbamoyl-PROXYL, Carboxyl-PROXYL in normal tissue, tumor, blood, and left and right kidney tissues. These decay rates may then be used to determine the redox status of the tissue. When a decay rate is calculated pixel-wise, redox mapping can be obtained. That is, regions showing a faster rate of decay correspond to hypoxic regions.

SMILES: CC1(C)CC(C(N)=O)C(C)(C)N1[O] (stereo not drawn) [Carbamoyl-PROXYL, 3-carbamoyl-2,2,5,5-tetramethyl-1-pyrrolidine-N-oxyl]
- Normal Leg Decay Rate ([1]; normal leg): 0.0356 ± 0.0122 min⁻¹
- Tumor Leg Decay Rate ([1]; squamous cell carcinoma leg): 0.0468 ± 0.0086 min⁻¹
- Relaxivity [2]: 0.171 mM⁻¹ s⁻¹
- relaxivity r1 ([2]; value used in sample decay-rate calculation): 0.17 mM⁻¹ s⁻¹
- Normal Leg Decay Rate ([3]; normal leg): 0.0766 ± 0.0070 min⁻¹
- Tumor Leg Decay Rate ([3]; squamous cell carcinoma leg): 0.1073 ± 0.0057* min^−1
- Normal Leg Decay Rate ([4]; normal leg): 0.0551 ± 0.0059 min⁻¹
- Tumor Leg Decay Rate ([4]; squamous cell carcinoma leg): 0.0669 ± 0.0144* min^−1

SMILES: CC1(C)CC(O)CC(C)(C)N1[O] [Tempol, 2,2,6,6-tetramethyl-4-piperidinol-N-oxyl]
- Decay Rate ([5]; Blood): 1.025 ± 0.213 min⁻¹
- Decay Rate ([5]; Left Kidney): 1.470 ± 0.199 min⁻¹
- Decay Rate ([5]; Normal Leg): 0.319 ± 0.025 min⁻¹
- Decay Rate ([5]; Right Kidney): 1.160 ± 0.333 min⁻¹
- Decay Rate ([5]; Tumor Leg): 1.095 ± 0.203** min^−1
- rate of decay, tumor versus normal tissue ([5]; in vivo MRI, FIG. 2): greater in tumor versus normal tissue

SMILES: CC1(C)CC(C(=O)O)C(C)(C)N1[O] (stereo not drawn) [Carboxy-PROXYL]
- Relaxivity [2]: 0.180 mM⁻¹ s⁻¹
